For experiment [1], the target named is T1, rat IP3R1 (Rattus norvegicus, UniProt P29994).
T1 construct: expressed in transfected cells; host or cells: DT40 cells (chicken B cells, all endogenous IP3R genes disrupted) stably expressing rat IP3R1
Nature of the experiment: IP3-evoked Ca2+ release from the intracellular stores of permeabilized DT40-IP3R1 cells. The class given is cell-based. As to the method: The free Ca^2+ concentration of the intracellular stores of permeabilized cells was measured using a low-affinity Ca^2+ indicator trapped within the endoplasmic reticulum as reported previously. Briefly, DT40 cells (4×10^7 cells/ml) were suspended in HBS (Hepes-buffered saline: 135 mM NaCl, 5.9 mM KCl, 11.6 mM Hepes, 1.5 mM CaCl2, 11.5 mM glucose and 1.2 mM MgCl2, pH 7.3) containing 1 mg/ml BSA, 0.4 mg/ml Pluronic F127 and 20 μM mag-fluo-4/AM (Invitrogen). After 1 h at 20°C in the dark with gentle shaking, cells were centrifuged at 650 g for 2 min and resuspended to 10^7 cells/ml in Ca^2+-free CLM (cytosol-like medium) (20 mM NaCl, 140 mM KCl, 1 mM EGTA, 20 mM Pipes and 2 mM MgCl2, pH 7.0) containing 20 μg/ml saponin. After incubation at 37°C with gentle shaking for 4 min, permeabilized cells were centrifuged at 650 g for 2 min and resuspended in Mg^2+-free CLM, supplemented with CaCl2 to give a final free Ca^2+ concentration of 220 nM. The free Ca^2+ concentration of CLM was calculated using the MaxChelator program (http://maxchelator.stanford.edu) and then measured using fluo-3 or fura-2. Cells were then washed, resuspended in Mg^2+-free CLM containing 10 μM FCCP (carbonyl cyanide p-trifluoromethoxyphenylhydrazone) to inhibit mitochondria, and distributed into a 96-well plate (10^6 cells in 50 μl of CLM/well). After centrifugation, fluorescence from the luminal indicator was recorded using a FlexStation II platereader (Molecular Devices) equipped to allow automated additions. In all experiments, the intracellular stores were allowed to load to steady-state with Ca^2+ after addition of MgATP. IP3 was then added with thapsigargin (1 μM, to inhibit Ca^2+ reuptake). The Ca^2+ release evoked by IP3 is expressed as a fraction of the ATP-dependent Ca^2+ uptake.

Experiment [2] has as its target T1, rat IP3R1. Nature of the experiment: Patch-clamp recording from patches excised from the outer nuclear envelope of DT40 cells. The class given is biochemical. The conditions noted are these: IP3 10 μM. As to the method:
Currents were recorded from patches excised from the outer nuclear envelope of DT40 cells expressing recombinant rat IP3R1 using symmetrical caesium methanesulfonate (140 mM) as the charge-carrier. The composition of recording solutions and methods of analysis were otherwise as described previously.

Experiment [3] deals with T2, NT (residues 1–604) of rat IP3R1 (Rattus norvegicus, UniProt P29994, DEL318-332).
T2 construct: The NT (residues 1–604) and IBC (residues 224–604) of rat IP3R1; His6 (N, cleaved yes); made in house; host or cells: Escherichia coli BL21(DE3)
T2 sequence (P29994 1-589 isoform P29994-2 limits assumed, stated change not applied): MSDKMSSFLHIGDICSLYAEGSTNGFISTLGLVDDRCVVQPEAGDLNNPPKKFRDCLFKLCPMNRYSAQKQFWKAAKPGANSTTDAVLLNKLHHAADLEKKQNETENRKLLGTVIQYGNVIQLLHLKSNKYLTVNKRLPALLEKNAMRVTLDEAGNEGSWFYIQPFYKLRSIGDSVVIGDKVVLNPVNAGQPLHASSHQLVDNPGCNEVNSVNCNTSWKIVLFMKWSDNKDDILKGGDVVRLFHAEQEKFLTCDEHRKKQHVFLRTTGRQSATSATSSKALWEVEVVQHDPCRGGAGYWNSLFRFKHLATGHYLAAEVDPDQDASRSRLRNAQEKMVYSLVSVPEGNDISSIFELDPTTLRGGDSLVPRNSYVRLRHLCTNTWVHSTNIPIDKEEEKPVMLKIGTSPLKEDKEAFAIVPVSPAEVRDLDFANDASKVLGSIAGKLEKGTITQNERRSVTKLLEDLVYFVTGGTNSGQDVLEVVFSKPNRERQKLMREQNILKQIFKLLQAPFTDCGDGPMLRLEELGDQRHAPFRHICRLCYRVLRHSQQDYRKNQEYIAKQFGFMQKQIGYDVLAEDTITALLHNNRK
Nature of the experiment: [3H]IP3 equilibrium-competition binding to NT. To be noted: CLM with 220 nM free Ca2+; read-out: EC50 for stimulating [3H]IP3 binding to the NT. The source says:
(§1) The NT (residues 1–604) and IBC (residues 224–604) of rat IP3R1 were amplified by PCR from the full-length receptor clone lacking the SI splice region (GenBank® accession number GQ233032.1) as described previously. The fragments were ligated into pTrcHis A (Invitrogen) to allow expression of N-terminally His6-tagged proteins. Mutagenesis of the 1-8-14 motif within the NT used the QuikChange® II XL site-directed mutagenesis kit (Stratagene) for single mutants (F53E, L60E, Y66E and K52E) and the QuikChange® multi-site-directed mutagenesis kit for the double mutant (F53E and Y66E). The primers used are listed in Supplementary Table S2 (at http://www.BiochemJ.org/bj/449/bj4490039add.htm). The same primers and conditions were used for mutagenesis of full-length IP3R using IP3R1 in the pENTR 1A vector. Full-length constructs were subcloned into pcDNA3.2/V5-DEST for expression in DT40 cells. The complete sequence of every mutant construct was verified by sequencing.
(§2) The pTrcHis constructs were used for expression of N-terminally His6-tagged proteins in Escherichia coli strain BL21(DE3) cells. Before use for [^3H]IP3 binding, proteins were cleaved from the His6 tags using biotinylated thrombin (Novagen) at the engineered thrombin-cleavage site. Complete cleavage was verified by Western blotting using an anti-His6 antibody. The proteins were used for [^3H]IP3 binding without further purification.
(§3) Equilibrium-competition binding assays were performed at 4°C for 5 min in CLM (500 μl) with a free Ca^2+ concentration of 220 nM and containing [^3H]IP3 (0.75–1.5 nM), bacterial lysate (10 μg of protein for IBC and 100 μg of protein for NT) or cerebellar membranes (50 μg of protein) and competing ligands. Non-specific binding was defined by addition of 10 μM IP3. Bound and free [^3H]IP3 were separated by centrifugation at 20000 g for 5 min, after addition of poly(ethylene glycol) (15% final concentration) and γ-globulin (0.75 mg) for soluble proteins. Results were analysed by fitting to a Hill equation (using GraphPad Prism) from which the IC50 (half-maximal inhibitory concentration) and thereby the Kd (equilibrium dissociation constant) were calculated.

Experiment [4] deals with T3, IBC (residues 224–604) of rat IP3R1 (Rattus norvegicus, UniProt P29994, DEL318-332).
T3 construct: IBC (residues 224–604) of rat IP3R1 were amplified by PCR; His6 (N, cleaved yes); made in house; host or cells: Escherichia coli BL21(DE3)
T3 sequence (P29994 224-589 isoform P29994-2 limits assumed, stated change not applied): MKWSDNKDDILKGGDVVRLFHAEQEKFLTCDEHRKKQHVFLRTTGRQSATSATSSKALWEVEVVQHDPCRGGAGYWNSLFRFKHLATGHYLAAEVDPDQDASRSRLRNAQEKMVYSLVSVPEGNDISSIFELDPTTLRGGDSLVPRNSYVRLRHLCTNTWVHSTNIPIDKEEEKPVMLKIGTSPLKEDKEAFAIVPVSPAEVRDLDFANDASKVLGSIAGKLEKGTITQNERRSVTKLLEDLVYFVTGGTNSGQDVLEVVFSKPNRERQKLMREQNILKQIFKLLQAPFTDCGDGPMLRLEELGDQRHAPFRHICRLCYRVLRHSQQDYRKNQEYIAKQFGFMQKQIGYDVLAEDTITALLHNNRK
Nature of the experiment: [3H]IP3 equilibrium-competition binding to IBC. To be noted: 3 mM peptide, [3H]IP3 1.5 nM.
Description: as §1, §2, §3

The target of a further experiment is T4, full-length IP3R1 (Rattus norvegicus, UniProt P29994).
T4 construct: membranes from rat cerebellum (full-length IP3R, FL); from tissue; host or cells: rat cerebellum membranes
Nature of the experiment: [3H]IP3 binding to membranes from rat cerebellum. To be noted: 3 mM peptide, [3H]IP3 1.5 nM. The method, then: as §3
Figure 4 1-8-14 peptide directly stimulates IP3 binding to the NT of IP3R (A) Specific equilibrium binding of [^3H]IP3 (1.5 nM) to membranes from rat cerebellum (full-length IP3R, FL) or to isolated NT or IBC, alone or in the presence of 3 mM of the indicated peptide. *P<0.05 and **P<0.01 relative to control; comparisons were performed on the raw data. (B) Concentration-dependent effects of 1-8-14 peptide on specific [^3H]IP3 binding to NT in CLM with 220 nM free Ca^2+ concentration, plotted as the increase in specific [^3H]IP3 binding as a percentage of that evoked by the maximal concentration of peptide. […]

T1 sequence (P29994 1-2735 isoform P29994-2): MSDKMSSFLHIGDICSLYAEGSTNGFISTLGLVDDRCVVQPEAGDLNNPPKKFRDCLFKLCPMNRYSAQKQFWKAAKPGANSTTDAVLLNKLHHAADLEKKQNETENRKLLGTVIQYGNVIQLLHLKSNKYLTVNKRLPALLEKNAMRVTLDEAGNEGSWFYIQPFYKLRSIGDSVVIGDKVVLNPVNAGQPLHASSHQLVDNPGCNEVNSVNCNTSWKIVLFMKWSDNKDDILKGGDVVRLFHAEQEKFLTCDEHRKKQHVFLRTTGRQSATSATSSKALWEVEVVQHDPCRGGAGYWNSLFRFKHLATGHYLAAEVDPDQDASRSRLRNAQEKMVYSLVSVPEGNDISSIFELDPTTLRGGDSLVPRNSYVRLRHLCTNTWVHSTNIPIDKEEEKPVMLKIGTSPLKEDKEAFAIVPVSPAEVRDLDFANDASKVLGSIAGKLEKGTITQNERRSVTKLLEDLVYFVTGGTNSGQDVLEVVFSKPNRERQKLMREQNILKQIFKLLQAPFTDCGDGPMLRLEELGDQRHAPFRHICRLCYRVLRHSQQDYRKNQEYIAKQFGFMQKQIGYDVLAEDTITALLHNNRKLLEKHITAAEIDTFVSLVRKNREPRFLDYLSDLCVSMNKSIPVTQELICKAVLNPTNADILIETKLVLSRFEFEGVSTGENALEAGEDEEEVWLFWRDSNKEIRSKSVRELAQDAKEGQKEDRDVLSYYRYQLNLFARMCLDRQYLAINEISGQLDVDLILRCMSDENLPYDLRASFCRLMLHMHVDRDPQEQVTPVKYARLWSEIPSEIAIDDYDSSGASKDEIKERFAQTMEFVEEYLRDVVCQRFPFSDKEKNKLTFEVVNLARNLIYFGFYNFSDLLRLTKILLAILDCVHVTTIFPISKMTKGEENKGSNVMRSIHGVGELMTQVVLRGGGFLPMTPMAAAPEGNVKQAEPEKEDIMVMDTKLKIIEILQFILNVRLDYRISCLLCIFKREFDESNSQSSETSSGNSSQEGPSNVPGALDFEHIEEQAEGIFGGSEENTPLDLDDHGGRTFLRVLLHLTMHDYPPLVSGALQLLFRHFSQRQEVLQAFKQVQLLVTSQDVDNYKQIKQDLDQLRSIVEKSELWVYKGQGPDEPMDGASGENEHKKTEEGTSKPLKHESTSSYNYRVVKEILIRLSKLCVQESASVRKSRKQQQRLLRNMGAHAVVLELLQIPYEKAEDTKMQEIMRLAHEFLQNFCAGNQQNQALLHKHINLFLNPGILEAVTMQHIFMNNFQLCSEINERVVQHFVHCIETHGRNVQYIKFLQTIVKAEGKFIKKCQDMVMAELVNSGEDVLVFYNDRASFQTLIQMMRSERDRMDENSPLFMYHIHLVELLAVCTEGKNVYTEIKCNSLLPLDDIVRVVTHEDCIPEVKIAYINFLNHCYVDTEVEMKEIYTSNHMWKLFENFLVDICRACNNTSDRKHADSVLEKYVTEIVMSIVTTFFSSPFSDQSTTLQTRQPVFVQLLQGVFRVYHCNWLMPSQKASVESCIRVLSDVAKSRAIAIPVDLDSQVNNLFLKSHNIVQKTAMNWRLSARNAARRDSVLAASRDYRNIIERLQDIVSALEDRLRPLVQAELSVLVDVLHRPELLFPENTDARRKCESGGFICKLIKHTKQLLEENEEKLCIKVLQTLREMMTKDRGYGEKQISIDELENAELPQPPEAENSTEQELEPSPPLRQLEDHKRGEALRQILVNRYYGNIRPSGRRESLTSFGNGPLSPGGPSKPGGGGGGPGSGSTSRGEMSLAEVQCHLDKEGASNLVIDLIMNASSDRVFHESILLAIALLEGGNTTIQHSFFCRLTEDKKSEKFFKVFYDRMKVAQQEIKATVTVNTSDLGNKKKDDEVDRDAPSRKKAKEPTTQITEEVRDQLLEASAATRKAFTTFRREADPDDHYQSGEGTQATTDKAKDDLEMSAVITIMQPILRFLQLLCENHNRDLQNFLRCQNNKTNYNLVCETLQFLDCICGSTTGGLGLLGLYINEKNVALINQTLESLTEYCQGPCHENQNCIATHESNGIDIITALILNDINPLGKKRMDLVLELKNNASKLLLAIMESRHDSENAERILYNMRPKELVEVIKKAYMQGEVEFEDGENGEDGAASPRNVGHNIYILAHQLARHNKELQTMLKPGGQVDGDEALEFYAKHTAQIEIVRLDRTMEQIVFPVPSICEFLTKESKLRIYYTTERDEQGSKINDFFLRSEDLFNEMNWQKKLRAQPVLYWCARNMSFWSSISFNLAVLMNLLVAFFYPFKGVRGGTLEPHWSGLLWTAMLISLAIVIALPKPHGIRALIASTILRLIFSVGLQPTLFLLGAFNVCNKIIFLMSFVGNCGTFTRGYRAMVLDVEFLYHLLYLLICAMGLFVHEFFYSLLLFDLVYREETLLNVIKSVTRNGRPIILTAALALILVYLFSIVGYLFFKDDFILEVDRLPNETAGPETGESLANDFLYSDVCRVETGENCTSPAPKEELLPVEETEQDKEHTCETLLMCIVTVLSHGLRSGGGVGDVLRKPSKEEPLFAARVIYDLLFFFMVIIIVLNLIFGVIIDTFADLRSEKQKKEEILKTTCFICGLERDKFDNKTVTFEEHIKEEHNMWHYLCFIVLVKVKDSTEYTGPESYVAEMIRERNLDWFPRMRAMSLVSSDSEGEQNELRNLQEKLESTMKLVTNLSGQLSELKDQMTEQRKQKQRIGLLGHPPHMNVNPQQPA

As usually defined, the inhibition is the drop in the measured response relative to a control, in per cent. A word on the IC50: it is the concentration at which inhibition is half-maximal. The term EC50 denotes the concentration that produces a half-maximal response. With “Ac-KKFRDALFKLAPMNRY-NH2 [1-8-14 peptide, Ac-KKFRDALFKLAPMNRY-NH2]”, the “dependence of inhibition on cytosolic free Ca2+ concentration” value at rat IP3R1 [1] (1 mM peptide, maximally effective IP3) is reported as “enhanced at elevated cytosolic Ca^2+ concentrations”. Also, on rat IP3R1 [1] (3 mM peptide 10–20 min, washed, rechallenged), the “reversibility of inhibition of IP3-evoked Ca2+ release” value was “fully reversible”. Also, the “effect on the sensitivity (EC50) to IP3” value on rat IP3R1 [1] (3 mM peptide, pre-incubation 2.5 min) is on record as “without affecting”. Further, on rat IP3R1 [1] (3 mM peptide, similar for all IP3 concentrations, read-out: percentage inhibition of IP3-evoked Ca2+ release), the inhibition at 3000 µM is around 75%. For the same substance, the Emax at rat IP3R1 [1] (maximally effective concentration of the peptide, read-out: reduction of the maximal response to IP3) is 77 ± 7%. Besides, at rat IP3R1 [1] (permeabilized DT40-IP3R1 cells), the “effect on Ca2+ uptake” value is reported as “without affecting”. The IC50 at rat IP3R1 [1] (permeabilized DT40-IP3R1 cells pre-incubated 10–20 min with peptide, IP3 10 μM, 220 nM free Ca2+, read-out: IC50 for inhibition of IP3-evoked Ca2+ release) was 767 µM. Also, on rat IP3R1 [2] (3 mM peptide, +40 mV), the “decrease in overall channel activity (NPo)” value is ~ 10 fold and the “decrease in the mean channel open time (τo)” value is recorded as 50%. The “single-channel conductance (γCs)” value on rat IP3R1 [2] (peptide-treated IP3Rs (3 mM), n=3, control 214±6 pS) amounted to 209±6 pS. Besides, the EC50 in experiment [3] is 615 µM. Besides, in experiment [4], the “effect on IP3 binding to the IBC” value is on record as “unaffected”. Moreover, the “effect on specific binding of [3H]IP3 to full-length IP3R1” value at full-length IP3R1 is listed as “increased”.

Values taken from paper PMC3685217, “Activation of IP3 receptors requires an endogenous 1-8-14 calmodulin-binding motif” (Biochemical Journal, 2012).
